Activity calls are given as the source filed them. The calls are words filed in the database; no cut-off is given here.
How the values were obtained:
[1] = Growth inhibition of porcine primary hepatocytes after 72 hrs by SRB assay; assay type: cell-based, Sus scrofa, Hepatocyte; conditions: pig
[2] = system: HepG2; test: Growth inhibition of human HepG2 cells after 72 hrs by SRB assay; assay type: functional; conditions: HepG2, 72 h
[3] = system: HepG2; test: Induction of cell cycle arrest in human HepG2 cells assessed as increase in DNA content at G2/M phase at 4.1 uM after 72 hrs by propidium iodide staining-based flow cytometric analysis; assay type: functional
[4] = system: HepG2; test: Induction of cell cycle arrest in human HepG2 cells assessed as increase in sub-G1 peak at 4.1 uM after 72 hrs by propidium iodide staining-based flow cytometric analysis; assay type: functional
[5] = system: HepG2; test: Induction of cell cycle arrest in human HepG2 cells assessed as decrease in DNA content at S phase at 4.1 uM after 72 hrs by propidium iodide staining-based flow cytometric analysis; assay type: functional

| SMILES | GI50 [2] | GI50 at 72 h [1] | Activity [3] | Activity [4] | Activity [5] |
| --- | --- | --- | --- | --- | --- |
| Cc1c2ccncc2c(C)c2c1[nH]c1ccccc12 [ELLIPTECINE] | 2.9 µM | 3.3 µM |  |  |  |
| COC(=O)c1sc2cc(-c3ccc4ccccc4c3)cnc2c1N | > 125 µM | 102 µM |  |  |  |
| COC(=O)c1sc2cc(-c3ccoc3)cnc2c1N | > 125 µM | > 125 µM |  |  |  |
| COC(=O)c1sc2cc(-c3ccc(OC)cc3)cnc2c1N | > 125 µM | > 125 µM |  |  |  |
| COC(=O)c1sc2cc(-c3cnc4ccccc4c3)cnc2c1N | > 125 µM | 32.5 µM |  |  |  |
| COC(=O)c1sc2cc(-c3ccc4ncccc4c3)cnc2c1N | > 125 µM | 14.1 µM |  |  |  |
| COC(=O)c1sc2cc(-c3ccc(F)nc3)cnc2c1N | > 125 µM | 47 µM |  |  |  |
| COC(=O)c1sc2cc(-c3ccc(OC)nc3)cnc2c1N | > 125 µM | > 125 µM |  |  |  |
| COC(=O)c1sc2cc(-c3ccc(-c4cccs4)s3)cnc2c1N | 70.6 µM | 106 µM |  |  |  |
| COC(=O)c1sc2cc(-c3cc(OC)cc(OC)c3)cnc2c1N | 125 µM | 25 µM |  |  |  |
| COC(=O)c1sc2cc(-c3cnc(OC)nc3OC)cnc2c1N | 23.8 µM | 4.4 µM |  |  |  |
| COC(=O)c1sc2cc(-c3ccc(C(F)(F)F)cc3)cnc2c1N | > 125 µM | > 125 µM |  |  |  |
| COC(=O)c1sc2cc(-c3ccsc3)cnc2c1N | > 125 µM | 25.2 µM |  |  |  |
| COC(=O)c1sc2cc(-c3ccc4c(ccn4C)c3)cnc2c1N | 117 µM | 106 µM |  |  |  |
| COC(=O)c1sc2cc(-c3cnn(C)c3)cnc2c1N | > 125 µM | > 125 µM |  |  |  |
| COC(=O)c1sc2cc(-c3ccc(C(C)=O)cc3)cnc2c1N | > 125 µM | > 125 µM |  |  |  |
| COC(=O)c1sc2cc(-c3cccnc3)cnc2c1N | > 125 µM | > 125 µM |  |  |  |
| COC(=O)c1sc2cc(-c3ccc(C#N)cc3)cnc2c1N | > 125 µM | 96.7 µM |  |  |  |
| COC(=O)c1sc2cc(-c3cncc4ccccc34)cnc2c1N | > 125 µM | 25.4 µM |  |  |  |

The next lines start with results.

| GI50 [2] | SMILES | GI50 at 72 h [1] | Activity [3] | Activity [4] | Activity [5] |
| --- | --- | --- | --- | --- | --- |
| > 125 µM | COC(=O)c1sc2cc(C#Cc3cccnc3)cnc2c1N | > 125 µM |  |  |  |
| 21.7 µM | COC(=O)c1sc2cc(-c3ccccc3N)cnc2c1N | > 125 µM |  |  |  |
| 30 µM | COC(=O)c1sc2cc(C#Cc3ccsc3)cnc2c1N | 30.7 µM |  |  |  |
| > 125 µM | COC(=O)c1sc2cc(C#Cc3ccccc3N)cnc2c1N | > 125 µM |  |  |  |
| 67.6 µM | COC(=O)c1sc2cc(C#Cc3ccc(N(C)C)cc3)cnc2c1N | > 125 µM |  |  |  |
| > 125 µM | COC(=O)c1sc2cc(C#Cc3ccccc3OC)cnc2c1N | 121 µM |  |  |  |
| > 125 µM | COC(=O)c1sc2cc(C#Cc3cccc(OC)c3)cnc2c1N | > 125 µM |  |  |  |
| 25.9 µM | COC(=O)c1sc2cc(C#Cc3ccc(N)cc3)cnc2c1N | > 125 µM |  |  |  |
| > 125 µM | COC(=O)c1sc2cc(C#Cc3ccccc3F)cnc2c1N | > 125 µM |  |  |  |
| > 125 µM | COC(=O)c1sc2cc(C#Cc3ccc(OC)cc3)cnc2c1N | 76.5 µM |  |  |  |
| > 125 µM | COC(=O)c1sc2cc(C#Cc3ccccc3)cnc2c1N | 95.7 µM |  |  |  |
| > 125 µM | COC(=O)c1sc2cc(C#Cc3ccc(F)cc3)cnc2c1N | > 125 µM |  |  |  |
| 75.7 µM | COC(=O)c1sc2cc(C#Cc3ccccn3)cnc2c1N | 56.9 µM |  |  |  |
| 1.2 µM | COC(=O)c1sc2cc(C#Cc3cccc(N)c3)cnc2c1N | > 125 µM | Active | Active | Active |

From ChEMBL document CHEMBL1914318, “Anti-hepatocellular carcinoma activity using human HepG2 cells and hepatotoxicity of 6-substituted methyl 3-aminothieno[3,2-b]pyridine-2-carboxylate derivatives: in vitro evaluation, cell cycle analysis and QSAR studies” (Eur J Med Chem, 2011)
